In ChEMBL document CHEMBL1201862, “PubChem BioAssay data set” (2004):
Active and inactive are the calls of the source.

Experiments:
[1] = target: Mitogen-activated protein kinase kinase kinase kinase 4 (Homo sapiens, UniProt O95819); format: functional
[2] = target: Interleukin-1 receptor-associated kinase 4 (Homo sapiens, UniProt Q9NWZ3); format: functional
[3] = target: MAP kinase-interacting serine/threonine-protein kinase 2 (Homo sapiens, UniProt Q9HBH9); format: functional
[4] = target: Dual specificity protein kinase CLK4 (Homo sapiens, UniProt Q9HAZ1); format: functional
Dual specificity protein kinase CLK4, sequence (Q9HAZ1 whole entry): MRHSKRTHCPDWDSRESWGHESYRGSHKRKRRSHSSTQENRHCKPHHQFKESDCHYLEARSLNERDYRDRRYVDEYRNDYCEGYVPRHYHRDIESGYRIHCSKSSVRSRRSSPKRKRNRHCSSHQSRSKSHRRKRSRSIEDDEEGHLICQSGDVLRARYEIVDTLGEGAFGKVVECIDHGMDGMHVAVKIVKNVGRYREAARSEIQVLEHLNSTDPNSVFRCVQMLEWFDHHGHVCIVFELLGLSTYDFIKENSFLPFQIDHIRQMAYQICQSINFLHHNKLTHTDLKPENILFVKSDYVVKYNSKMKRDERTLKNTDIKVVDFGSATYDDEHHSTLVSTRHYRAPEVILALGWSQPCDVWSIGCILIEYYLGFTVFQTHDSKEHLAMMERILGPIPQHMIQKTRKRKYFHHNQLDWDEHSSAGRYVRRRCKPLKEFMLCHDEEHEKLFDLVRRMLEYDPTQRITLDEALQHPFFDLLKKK

[5] = target: cAMP-dependent protein kinase catalytic subunit alpha (Homo sapiens, UniProt P17612); format: functional
[6] = target: Homeodomain-interacting protein kinase 2 (Homo sapiens, UniProt Q9H2X6); format: functional;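 note: measured within a kinome-wide kinase profiling panel, HIPK2 being one panel member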
[7] = target: Glycogen synthase kinase-3 beta (Homo sapiens, UniProt P49841); format: functional;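 note: value comes from a broad kinome profiling panel, with GSK3B as the panel member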
Glycogen synthase kinase-3 beta, sequence (P49841 whole entry): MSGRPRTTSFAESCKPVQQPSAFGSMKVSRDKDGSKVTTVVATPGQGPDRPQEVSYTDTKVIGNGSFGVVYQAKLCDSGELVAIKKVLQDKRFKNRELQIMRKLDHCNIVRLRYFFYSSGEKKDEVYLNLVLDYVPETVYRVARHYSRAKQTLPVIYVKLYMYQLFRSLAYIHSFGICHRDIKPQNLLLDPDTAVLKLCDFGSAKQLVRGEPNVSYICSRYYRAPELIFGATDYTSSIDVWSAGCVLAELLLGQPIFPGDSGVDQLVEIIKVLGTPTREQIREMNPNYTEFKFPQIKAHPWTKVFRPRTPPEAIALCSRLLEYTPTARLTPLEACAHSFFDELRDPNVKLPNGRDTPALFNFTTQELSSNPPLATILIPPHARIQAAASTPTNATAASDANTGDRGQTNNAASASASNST

[8] = target: Serine/threonine-protein kinase pim-1 (Homo sapiens, UniProt P11309); format: functional
[9] = target: Cell division cycle 7-related protein kinase (Homo sapiens, UniProt O00311); format: functional;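 note: value obtained from a kinome-wide kinase panel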
Cell division cycle 7-related protein kinase, sequence (O00311 whole entry, the tested form may be a part): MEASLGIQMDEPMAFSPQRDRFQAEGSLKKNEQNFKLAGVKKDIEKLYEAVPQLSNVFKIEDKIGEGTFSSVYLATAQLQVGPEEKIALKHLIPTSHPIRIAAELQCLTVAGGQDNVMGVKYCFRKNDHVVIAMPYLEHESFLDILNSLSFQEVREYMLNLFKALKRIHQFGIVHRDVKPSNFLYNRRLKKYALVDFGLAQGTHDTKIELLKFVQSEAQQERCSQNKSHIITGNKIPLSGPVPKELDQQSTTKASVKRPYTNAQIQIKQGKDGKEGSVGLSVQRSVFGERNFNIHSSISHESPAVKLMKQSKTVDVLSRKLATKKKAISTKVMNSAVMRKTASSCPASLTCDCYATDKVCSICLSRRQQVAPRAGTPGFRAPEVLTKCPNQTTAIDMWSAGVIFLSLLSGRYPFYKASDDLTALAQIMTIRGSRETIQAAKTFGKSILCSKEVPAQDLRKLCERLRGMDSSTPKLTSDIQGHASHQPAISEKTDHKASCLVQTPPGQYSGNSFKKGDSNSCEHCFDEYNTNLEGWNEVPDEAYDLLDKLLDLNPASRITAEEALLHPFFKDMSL

[10] = target: LIM domain kinase 1 (Homo sapiens, UniProt P53667); assay: Navigating the Kinome. Panel member name: LIMK1; format: functional
LIM domain kinase 1, sequence (P53667 whole entry, the tested form may be a part): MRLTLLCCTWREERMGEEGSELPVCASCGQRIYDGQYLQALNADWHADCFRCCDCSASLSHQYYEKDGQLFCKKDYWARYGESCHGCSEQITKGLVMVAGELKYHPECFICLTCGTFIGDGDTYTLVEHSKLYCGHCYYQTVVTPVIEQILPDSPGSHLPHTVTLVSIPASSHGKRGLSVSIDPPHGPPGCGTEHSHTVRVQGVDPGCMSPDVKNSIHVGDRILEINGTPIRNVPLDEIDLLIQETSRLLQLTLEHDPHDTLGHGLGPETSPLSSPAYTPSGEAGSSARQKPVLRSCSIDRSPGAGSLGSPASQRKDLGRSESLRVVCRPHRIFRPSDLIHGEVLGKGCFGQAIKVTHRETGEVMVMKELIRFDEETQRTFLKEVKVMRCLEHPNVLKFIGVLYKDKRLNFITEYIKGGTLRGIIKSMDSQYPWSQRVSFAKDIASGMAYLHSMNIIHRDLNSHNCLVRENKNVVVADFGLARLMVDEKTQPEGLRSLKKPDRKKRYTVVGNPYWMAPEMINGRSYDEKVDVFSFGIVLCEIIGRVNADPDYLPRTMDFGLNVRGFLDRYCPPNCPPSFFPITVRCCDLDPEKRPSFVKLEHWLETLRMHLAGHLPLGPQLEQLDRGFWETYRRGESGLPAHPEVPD

[11] = target: Cyclin-dependent kinase 5 (Homo sapiens, UniProt Q00535); format: functional;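 note: CDK5 measured as one member of a kinase profiling panel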
[12] = target: T1, Serine/threonine-protein kinase Chk1 (Homo sapiens, UniProt O14757); format: functional;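 note: measured as one member of a kinome-wide kinase profiling panel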
T1 sequence (O14757 whole entry): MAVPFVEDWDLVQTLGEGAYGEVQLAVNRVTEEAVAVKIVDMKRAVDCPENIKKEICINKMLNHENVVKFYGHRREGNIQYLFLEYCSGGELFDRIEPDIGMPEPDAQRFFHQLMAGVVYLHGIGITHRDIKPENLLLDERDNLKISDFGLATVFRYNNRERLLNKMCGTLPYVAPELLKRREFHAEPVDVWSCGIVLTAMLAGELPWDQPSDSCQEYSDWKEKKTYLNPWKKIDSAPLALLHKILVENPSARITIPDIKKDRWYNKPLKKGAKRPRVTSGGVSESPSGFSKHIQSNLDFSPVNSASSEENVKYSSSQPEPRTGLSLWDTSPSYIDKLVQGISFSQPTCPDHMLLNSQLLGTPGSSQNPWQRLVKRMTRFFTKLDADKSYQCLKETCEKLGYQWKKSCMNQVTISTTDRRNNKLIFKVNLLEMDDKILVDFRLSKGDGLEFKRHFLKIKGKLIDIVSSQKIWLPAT

[13] = target: DNA dC->dU-editing enzyme APOBEC-3G (Homo sapiens, UniProt Q9HC16); assay: APOBEC3G deaminase inhibitors, SAR follow-up, biochemical, fluorescence, single-stranded DNA substrate (AID 602136); format: functional; conditions: read-out: IC50_Mean
[14] = target: DNA dC->dU-editing enzyme APOBEC-3A (Homo sapiens, UniProt P31941); assay: SAR analysis of small molecule inhibitors of APOBEC3A DNA Deaminase via a fluorescence-based single-stranded DNA deaminase assay.; format: functional; conditions: read-out: IC50_Mean
[15] = target: T2, RNA-binding protein pos-1 (Caenorhabditis elegans, UniProt G5EF15); assay: inhibitors of POS-1/mex-3 RNA binding, dose response, biochemical, fluorescence polarization (AID 1964);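 note: purified POS-1 fused to maltose binding protein made in E. coli; potency of compounds blocking POS-1 binding to fluorescent RNA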
T2 sequence (G5EF15 whole entry): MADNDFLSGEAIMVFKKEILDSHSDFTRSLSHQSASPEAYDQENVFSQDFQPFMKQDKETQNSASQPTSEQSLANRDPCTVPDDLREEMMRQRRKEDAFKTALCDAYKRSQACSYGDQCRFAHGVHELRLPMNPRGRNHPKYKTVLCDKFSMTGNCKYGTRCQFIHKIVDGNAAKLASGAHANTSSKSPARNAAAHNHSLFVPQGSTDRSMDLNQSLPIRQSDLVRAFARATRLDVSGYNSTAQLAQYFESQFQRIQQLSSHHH

[16] = target: 26S proteasome non-ATPase regulatory subunit 14 (Homo sapiens, UniProt O00487); assay: inhibition of proteasome subunit RPN11 – biochemical, fluorescence polarization, uHTS hits, confirmation (AID 602368); format: functional
26S proteasome non-ATPase regulatory subunit 14, sequence (O00487 whole entry): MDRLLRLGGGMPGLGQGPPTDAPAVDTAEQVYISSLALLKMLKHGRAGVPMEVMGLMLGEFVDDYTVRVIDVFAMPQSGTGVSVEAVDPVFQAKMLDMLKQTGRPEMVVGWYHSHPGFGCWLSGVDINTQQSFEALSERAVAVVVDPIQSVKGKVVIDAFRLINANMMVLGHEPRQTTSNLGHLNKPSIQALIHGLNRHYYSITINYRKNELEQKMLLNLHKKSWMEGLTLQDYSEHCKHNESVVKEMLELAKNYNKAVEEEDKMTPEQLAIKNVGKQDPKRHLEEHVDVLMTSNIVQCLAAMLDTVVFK

[17] = target: 72 kDa type IV collagenase (Homo sapiens, UniProt P08253); assay: Dose Response validation of uHTS RPN11 inhibitor hits using a MMP-2 Fluorescence assay.; format: functional
[18] = target: Prothrombin (Bos taurus, UniProt P00735); assay: thrombin inhibition, dose response, biochemical, fluorescence polarization, uHTS hits (AID 602369); format: functional
[19] = target: T3, Zinc finger protein mex-5 (Caenorhabditis elegans, UniProt Q9XUB2); assay: MEX-5/TCR-2 RNA interaction inhibitors, dose response, biochemical, C. elegans, fluorescence polarization (AID 1960)
T3 sequence (Q9XUB2 whole entry): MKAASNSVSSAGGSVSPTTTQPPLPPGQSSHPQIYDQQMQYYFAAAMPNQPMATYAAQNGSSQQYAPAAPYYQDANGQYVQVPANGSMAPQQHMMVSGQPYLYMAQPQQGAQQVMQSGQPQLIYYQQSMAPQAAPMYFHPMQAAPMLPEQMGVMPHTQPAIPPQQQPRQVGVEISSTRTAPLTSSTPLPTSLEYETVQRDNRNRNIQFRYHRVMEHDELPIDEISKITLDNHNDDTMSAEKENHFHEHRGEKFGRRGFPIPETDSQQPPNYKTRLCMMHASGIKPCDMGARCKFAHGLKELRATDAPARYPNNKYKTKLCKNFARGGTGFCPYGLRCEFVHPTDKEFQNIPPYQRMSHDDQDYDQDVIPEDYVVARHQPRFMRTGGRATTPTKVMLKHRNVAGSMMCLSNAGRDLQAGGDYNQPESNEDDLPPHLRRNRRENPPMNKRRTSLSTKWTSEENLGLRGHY

[20] = target: Protein kinase C gamma type (Homo sapiens, UniProt P05129); format: functional
[21] = target: MAP kinase-activated protein kinase 3 (Homo sapiens, UniProt Q16644); format: functional;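 note: value comes from a kinome-wide profiling panel in which MAPKAPK3 is one of the panel members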
[22] = target: G protein-coupled receptor kinase 5 (Homo sapiens, UniProt P34947); assay: Navigating the Kinome. Panel member name: GPRK5; format: functional
[23] = target: Mitogen-activated protein kinase kinase kinase 10 (Homo sapiens, UniProt Q02779); assay: Navigating the Kinome. Panel member name: MAP3K10; format: functional
Mitogen-activated protein kinase kinase kinase 10, sequence (Q02779 whole entry): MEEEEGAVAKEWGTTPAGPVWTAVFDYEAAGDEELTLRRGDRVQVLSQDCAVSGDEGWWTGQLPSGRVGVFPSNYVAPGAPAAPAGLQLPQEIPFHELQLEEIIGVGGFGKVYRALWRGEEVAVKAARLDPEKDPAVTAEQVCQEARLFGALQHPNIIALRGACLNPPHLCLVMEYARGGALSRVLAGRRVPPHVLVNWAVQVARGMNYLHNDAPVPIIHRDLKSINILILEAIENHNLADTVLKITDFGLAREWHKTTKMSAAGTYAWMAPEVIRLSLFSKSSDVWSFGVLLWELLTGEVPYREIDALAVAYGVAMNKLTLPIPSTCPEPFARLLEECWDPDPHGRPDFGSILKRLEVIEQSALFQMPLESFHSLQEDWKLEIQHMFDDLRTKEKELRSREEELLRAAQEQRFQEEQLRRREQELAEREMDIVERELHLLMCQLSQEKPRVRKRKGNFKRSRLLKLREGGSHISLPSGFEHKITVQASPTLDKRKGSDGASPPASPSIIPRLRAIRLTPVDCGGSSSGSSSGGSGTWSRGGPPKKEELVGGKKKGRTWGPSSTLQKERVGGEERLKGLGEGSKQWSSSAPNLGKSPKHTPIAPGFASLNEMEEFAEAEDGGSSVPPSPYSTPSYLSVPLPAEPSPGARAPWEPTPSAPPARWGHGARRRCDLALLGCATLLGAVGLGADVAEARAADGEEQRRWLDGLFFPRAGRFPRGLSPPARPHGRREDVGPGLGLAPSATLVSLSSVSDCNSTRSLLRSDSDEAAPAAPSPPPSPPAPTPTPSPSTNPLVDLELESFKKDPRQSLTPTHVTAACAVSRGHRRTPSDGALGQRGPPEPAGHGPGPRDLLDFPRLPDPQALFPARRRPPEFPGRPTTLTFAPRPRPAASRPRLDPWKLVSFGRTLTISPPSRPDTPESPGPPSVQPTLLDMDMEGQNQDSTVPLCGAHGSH

[24] = target: Serine/threonine-protein kinase D2 (Homo sapiens, UniProt Q9BZL6); format: functional;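 note: measured against PRKD2 as one member of a kinome-wide kinase profiling panel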
Serine/threonine-protein kinase D2, sequence (Q9BZL6 whole entry): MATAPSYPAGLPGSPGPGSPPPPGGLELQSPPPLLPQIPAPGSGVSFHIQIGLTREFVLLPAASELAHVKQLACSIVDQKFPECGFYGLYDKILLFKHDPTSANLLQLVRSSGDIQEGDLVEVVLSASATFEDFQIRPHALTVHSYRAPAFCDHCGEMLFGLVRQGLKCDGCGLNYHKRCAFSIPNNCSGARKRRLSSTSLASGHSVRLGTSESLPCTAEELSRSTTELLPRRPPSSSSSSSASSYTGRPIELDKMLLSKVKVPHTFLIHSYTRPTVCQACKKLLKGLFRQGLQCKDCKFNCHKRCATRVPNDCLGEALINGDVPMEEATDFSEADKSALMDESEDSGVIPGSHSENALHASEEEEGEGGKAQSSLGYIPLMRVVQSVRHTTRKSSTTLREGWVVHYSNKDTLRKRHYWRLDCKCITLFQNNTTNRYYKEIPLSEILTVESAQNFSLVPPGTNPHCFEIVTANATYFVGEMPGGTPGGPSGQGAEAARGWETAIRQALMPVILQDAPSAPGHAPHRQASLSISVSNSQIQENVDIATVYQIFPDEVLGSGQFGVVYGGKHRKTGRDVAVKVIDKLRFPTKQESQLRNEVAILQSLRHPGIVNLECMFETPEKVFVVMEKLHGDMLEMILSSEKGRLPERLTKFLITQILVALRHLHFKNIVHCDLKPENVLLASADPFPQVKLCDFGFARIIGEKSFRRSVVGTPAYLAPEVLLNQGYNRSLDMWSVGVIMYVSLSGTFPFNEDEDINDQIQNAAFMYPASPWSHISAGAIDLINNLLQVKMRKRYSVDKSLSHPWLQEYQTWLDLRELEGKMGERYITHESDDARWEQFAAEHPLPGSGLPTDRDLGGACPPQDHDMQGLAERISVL

With `CC(C)(Nc1nccc(-c2c[nH]c3ncccc23)n1)c1ccccc1` the Ki [1] was 0.0158 µM (active), the Ki [2] was 0.0158 µM (active) and the Ki [3] was 0.0251 µM (active). For the same molecule, the Ki [4] was 0.00316 µM (active), the Ki [5] was 0.0126 µM (active) and the Ki [6] was 0.316 µM (active). For the same molecule, the Ki [7] was 0.126 µM (active), the Ki [8] was 1.26 µM (active) and the Ki [9] was 0.02 µM (active).

With `O=[N+]([O-])c1ccc2[nH]c(-c3ccco3)nc2c1` the Ki [4] was 1.58 µM (active), the Ki [10] was 3.16 µM (active) and the Ki [11] was 2.51 µM (active). The Ki [12] was 2.51 µM (active).

In the case of `CCn1c(=O)c2ccccc2n2c(COc3ccc4c(C(F)(F)F)cc(=O)oc4c3)nnc12`, the IC50 [13] is reported as > 99 µM (inactive) and the IC50 [14] is reported as > 99 µM (inactive).

With `O=C(N/N=C/c1ccc(-c2ccc([N+](=O)[O-])cc2)o1)c1cccnc1` the EC50 [15] was > 300 µM (not active), the IC50 [16] was 28.6 µM (active) and the IC50 [17] was > 100 µM (inactive). The IC50 [18] was 19.8 µM (active) and the EC50 [19] was 27.4 µM (active).

In the case of `O=C(O)c1ccc(Nc2ncc3c(n2)-c2ccc(Cl)cc2C(c2c(F)cccc2F)=NC3)cc1` [MLN-8054], the Ki [20] is reported as > 7.94 µM (inactive), the Ki [21] is reported as > 10 µM (inactive) and the Ki [22] is reported as 1 µM (active). The Ki [23] was > 3.16 µM (inactive) and the Ki [24] was > 10 µM (inactive).
